Measured values reported in patent publication US8911605B2, “Method for antibiotic susceptibility testing and determining minimum inhibitory concentration of the antibiotic” (National Cheng Kung University, priority 2011, dated 2014).
Values after ≈ are worked out from the molar mass of the structure shown.

Assays:
E. coli ATCC 25922 [1] = experiment: Dielectrophoretic test (cell elongation, crossover frequency); format: cell-based, Escherichia coli; conditions: for dielectrophoretic behaviour and cell elongation: alternating current frequency 600 kHz
Method: Phosphate-buffered saline (PBS) containing 137 mM NaCl, 2.7 mM KCl, 4.3 mM Na2HPO4, and 1.47 mM KH2PO4 at pH 7.4 was prepared. An oral β-lactam antibiotic, cephalexin (Sigma, USA), which generally is used in the treatment of urinary tract infection (UTI), was dissolved in 1×PBS and prepared into a stock concentration of 1024 μg/mL. This stock concentration was diluted with trypticase soy broth (TBS) into 4 μg/mL and 32 μg/mL.
Among different cell lines of Escherichia coli causing urinary infection, E. coli ATCC 25922 was selected and cultured with TBS under shaking at 37° C. Then, the bacterial concentration of the culture suspensions was adjusted to 1.5×10^6 cells/ml by a densitometer (VITEK 2, BioMérieux).
(§1) The bacterial suspension (100 μl) and TBS culture media (containing the antibiotic at different concentrations, 900 μl) were mixed ([…]) and incubated at 37° C. in a shaking incubator for 60 minutes. After the treatment, the bacterial suspensions (500-1000 μl) were centrifugated at 3000-5000 rpm for 3-5 minutes. The supernatant of the bacterial suspensions was removed. Finally, 0.2 M 4-(2-hydroxyethyl)-1-piperazineethanesulfonic acid (HEPES) buffer (500 μl, σ=3 mS/cm, Invitrogen 15630) was added to the remaining bacteria and the formed bacterial suspensions were shaken using a vortex mixer (Shin Kwang, Taiwan) for 30 seconds to avoid aggregation of the bacteria for the following dielectrophoretic tests.
(§2) The bacterial suspensions (5 μl) were pipetted into a sample well of the chip of Preparation Example 1. The electrode array was then connected to a function generator (Fluke 284 USA) and supplied with an alternating current signal or dielectrophoresis. The frequency of E. coli migrating from the electrode center to the electrode edge, was determined as crossover frequency (cof). During dielectrophoresis, the images were observed and recorded through an inverted microscope (Olympus IX70, Japan) and a CCD camera (Microfire, Optronics).
In the same manner as that of Example 1, the antibiotic solutions at 1 μg/mL, 2 μg/mL, 4 μg/mL, 8 μg/mL, 16 μg/mL, 32 μg/mL, and 64 μg/mL were prepared and their action periods of time were 30, 60, and 120 minutes. In addition, the chip of Preparation Example 2 was used in the analysis. For measurement of the cell length of E. coli during dielectrophoresis, when the bacteria were straightly arranged on an ITO quadruple electrode by field-induced dielectrophoretic force, the cell length was analyzed by the image software (FreePlus32).
(§3) In the same manner as that of Example 1, a cefazolin solution at 2 μg/mL was prepared and used to act on E. coli ATCC 25922, w958, and BCRC 15501 for 120 minutes for the following dielectrophoretic testing. Among these cell lines, E. coli w958 from National Cheng Kung University Hospital in Taiwan is a drug-resistant bacterium isolated from clinical samples.

E. coli w958 [2] = experiment: Conventional broth dilution method; format: cell-based; conditions: Escherichia coli, 0-16 μg/mL tested, read-out: inhibitory concentration (MIC)
Method: (§4) In order to confirm that the results from Example 3 of the present invention are not different from those from a conventional method, a broth dilution method was carried out on E. coli ATCC 25922, w958, and BCRC 15501 at 0 μg/mL, 0.5 μg/mL, 1 μg/mL, 2 μg/mL, 4 μg/mL, 8 μg/mL, 16 μg/mL of cefazolin. The results are shown in FIGS. 6 (a) to (c), wherein No denotes no bacteria.

E. coli ATCC 25922 [3] = experiment: Conventional broth dilution method; format: cell-based; conditions: Escherichia coli, ATCC25922, 0-16 μg/mL tested, read-out: inhibitory concentration (MIC)
Method: as §4

E. coli BCRC 15501 [4] = experiment: Conventional broth dilution method; format: cell-based; conditions: Escherichia coli, BCRC15501, 0-16 μg/mL tested, read-out: inhibitory concentration (MIC)
Method: as §4

E. coli w958 [5] = experiment: Dielectrophoretic test (cell elongation); format: cell-based, Escherichia coli; conditions: cefazolin 2 μg/mL, 120 minutes
Method: as §1, §2, §3

E. coli BCRC 15501 [6] = experiment: Dielectrophoretic test (cell elongation); format: cell-based, Escherichia coli; conditions: cefazolin 2 μg/mL, 120 minutes
Method: as §1, §2, §3

E. coli = experiment: Conventional agar dilution method; format: cell-based; conditions: Escherichia coli
From the text: In order to confirm that the MIC determined in Example 2 of the present invention is not different from that determined in conventional methods, an agar dilution method was used to determine the MIC of cephalexin to E. coli.

MIC (E. coli w958 [2]) [µg/mL]	MIC (E. coli ATCC 25922 [3]) [µg/mL]	MIC (E. coli BCRC 15501 [4]) [µg/mL]	Structure (SMILES)	cell elongation (E. coli ATCC 25922 [1]; cefazolin 2 μg/mL, 120 minutes)	drug resistance of the bacterium (E. coli ATCC 25922 [1]; cefazolin 2 μg/mL, 120 minutes)	drug resistance of the bacterium (E. coli w958 [5])	morphological cell elongation (E. coli w958 [5])	cell elongation (E. coli BCRC 15501 [6])	drug resistance of the bacterium (E. coli BCRC 15501 [6])	crossover frequency (cof) (E. coli ATCC 25922 [1]; 32 μg/mL for 60 minutes)	cell length (E. coli ATCC 25922 [1]; 1-64 μg/mL, 30, 60, 120 minutes, FIGS. 3 (a) and (c))	MIC (E. coli ATCC 25922 [1]; Escherichia coli, ATCC25922, 1 h, determined by dielectrophoresis, 60 minutes, read-out: minimum inhibitory concentration (MIC)) [µg/mL]	morphological cell elongation (E. coli ATCC 25922 [1]; FIG. 2 (c), text prints 60 minutes, figure legend 120 minutes)	cell elongation (E. coli ATCC 25922 [1]; antibiotic 4 μg/ml, 60 minutes, alternating current frequency 4 MHz)	dielectrophoretic behaviour and cell elongation (E. coli ATCC 25922 [1]; antibiotic 4 μg/ml, 60 minutes)	cell elongation (E. coli ATCC 25922 [1]; antibiotic 32 μg/ml for 1 hour, alternating current frequency 4 MHz)	dielectrophoretic behaviour and cell elongation (E. coli ATCC 25922 [1]; antibiotic 32 μg/ml for 1 hour)	morphological changes in bacteria (E. coli ATCC 25922 [1]; antibiotic treatment for 30 minutes, FIG. 2 (a))	morphological cell elongation (E. coli ATCC 25922 [1]; antibiotic treatment for 60 minutes, FIG. 2 (b))	MIC (E. coli) [µg/mL]
> 16	2 (≈ 4.4 µM)	2 (≈ 4.4 µM)	Cc1nnc(SCC2=C(C(=O)O)N3C(=O)[C@@H](NC(=O)Cn4cnnn4)[C@H]3SC2)s1 [cefazolin]	obvious cell elongation occurs	not resistant to cefazolin	resistant to cefazolin	morphological cell elongation is unobvious	obvious cell elongation occurs	not resistant to cefazolin	–	–	–	–	–	–	–	–	–	–	–
–	–	–	CC1=C(C(=O)O)N2C(=O)[C@@H](NC(=O)[C@H](N)c3ccccc3)[C@H]2SC1 [cephalexin]	–	–	–	–	–	–	about 600 kHz	cell length increases as the concentration and action time increase	32 (≈ 92.1 µM)	morphological cell elongation occurs obviously even at a low concentration of the antibiotic	some bacteria are slightly elongated	some bacteria are still arranged at the center of the electrodes by negative dielectrophoretic force. However, the others are adsorbed at the edges of the electrode by positive dielectrophoretic force and slightly elongated	all bacteria have become elongated	all bacteria are adsorbed at the edges of the electrode by positive dielectrophoretic force and have become elongated	distinction between morphological changes in bacteria is difficult	morphological cell elongation occurs obviously as the antibiotic concentrations increase	32 to 64 (≈ 92.1 to 184 µM)
